Measurements taken from article PMC4400119 (Cancer chemotherapy and pharmacology, 2014).
Read-outs that look alike come from different tables or passages of the source.

Assays:
NCI-60 panel [1] = settings: average response from all cell lines tested, cited from earlier work; for GI50: read-out: Potency, Mean GI50
Huh-7 [2] = assay: MTT cell viability assay, Huh-7; format: cell-based; settings: Homo sapiens, Huh-7, 72 h, read-out: EC50 cell viability, Liver Huh-7
ACHN = assay: MTT cell viability assay, ACHN; format: cell-based; settings: Homo sapiens, 72 h, read-out: EC50 cell viability, Kidney ACHN
PC-3 = assay: MTT cell viability assay, PC-3; format: cell-based; settings: Homo sapiens, PC-3, 72 h, read-out: EC50 cell viability, Prostate PC-3
T47D = assay: MTT cell viability assay, T47D; format: cell-based; settings: Homo sapiens, 72 h, read-out: EC50 cell viability, Breast T47D
SKBR3 = assay: MTT cell viability assay, SKBR3; format: cell-based; settings: Homo sapiens, SK-BR-3, 72 h, read-out: EC50 cell viability, Breast SKBR3
HepG2 [3] = assay: Caspase-Glo 3/7 induction, HepG2; format: cell-based, human
Huh-7 [4] = assay: Caspase-Glo 3/7 induction, Huh-7; format: cell-based, human
HepG2 cells [5] = assay: Cell viability with pan-caspase inhibitor Z-VAD-FMK co-treatment; format: cell-based, human; settings: Z-VAD-FMK 20 μM pre-incubation 60 min, then 30 μM compound for 24 h
HepG2 cells [6] = assay: Mitochondrial membrane depolarization and AIF release; format: cell-based, human; settings: 30 μM, 6 h
[7] = biological target: soluble epoxide hydrolase (sEH); settings: read-out: IC50 against sEH; cited from earlier work
Raf-1 kinase = settings: read-out: IC50 recombinant Raf-1 kinase inhibition; cited from earlier work
HepG2 [8] = assay: MTT cell viability assay, HepG2; format: cell-based, human
KM12 (colon cancer) = assay: NCI-60 human tumor cell line screen, KM12; format: cell-based
FGFR2 = FGFR2 (Homo sapiens, UniProt P21802); assay: KinaseSeeker kinase screen, FGFR2; format: binding; settings: 10 μM, compared with sorafenib
EPHA1 = biological target: T1, EPHA1 (Homo sapiens, UniProt P21709); assay: KinaseSeeker kinase screen, EPHA1; format: binding; settings: 10 μM, compared with sorafenib
T1 sequence (P21709 26-976): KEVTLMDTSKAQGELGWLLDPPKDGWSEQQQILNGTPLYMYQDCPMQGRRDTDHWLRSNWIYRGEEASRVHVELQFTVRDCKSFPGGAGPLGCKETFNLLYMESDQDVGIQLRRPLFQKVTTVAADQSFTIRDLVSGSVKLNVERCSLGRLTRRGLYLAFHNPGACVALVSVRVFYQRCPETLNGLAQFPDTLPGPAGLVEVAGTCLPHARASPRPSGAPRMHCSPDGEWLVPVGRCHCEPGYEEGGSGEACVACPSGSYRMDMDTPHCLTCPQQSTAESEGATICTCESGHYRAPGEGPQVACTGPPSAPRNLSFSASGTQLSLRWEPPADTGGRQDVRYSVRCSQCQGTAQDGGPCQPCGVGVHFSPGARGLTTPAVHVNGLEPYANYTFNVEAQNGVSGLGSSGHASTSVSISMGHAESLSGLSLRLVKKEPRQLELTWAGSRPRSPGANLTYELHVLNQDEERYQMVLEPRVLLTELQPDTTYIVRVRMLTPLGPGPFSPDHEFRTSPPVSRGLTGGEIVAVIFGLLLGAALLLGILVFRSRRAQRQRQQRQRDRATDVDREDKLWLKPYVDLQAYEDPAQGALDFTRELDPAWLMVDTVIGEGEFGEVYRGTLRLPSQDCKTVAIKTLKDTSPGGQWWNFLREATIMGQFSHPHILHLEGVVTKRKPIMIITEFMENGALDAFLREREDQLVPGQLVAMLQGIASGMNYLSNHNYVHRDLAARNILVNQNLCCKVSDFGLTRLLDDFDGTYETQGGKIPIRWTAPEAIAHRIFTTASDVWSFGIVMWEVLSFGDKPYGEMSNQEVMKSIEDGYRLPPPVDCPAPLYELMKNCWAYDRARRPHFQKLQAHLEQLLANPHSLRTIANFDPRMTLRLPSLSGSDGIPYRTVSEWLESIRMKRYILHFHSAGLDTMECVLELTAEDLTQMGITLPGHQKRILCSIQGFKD

STAT3 phosphorylation = assay: Western blot, STAT3 phosphorylation; format: cell-based, human; settings: 10 μM, 24 h exposure
HepG2 cells [9] = assay: Cell cycle analysis; format: cell-based, human; settings: 30 μM, 24-h exposure
[10] = Pharmacokinetic study, cassette oral administration in mice; format: in vivo; settings: oral 1 mg/kg
NCI-60 panel [11] = settings: average response from all cell lines tested
[12] = tested on: oncogenic b-Raf (V600E) kinase; settings: relative to sorafenib; cited from earlier work

Chain of FGFR2 (P21802 22-821): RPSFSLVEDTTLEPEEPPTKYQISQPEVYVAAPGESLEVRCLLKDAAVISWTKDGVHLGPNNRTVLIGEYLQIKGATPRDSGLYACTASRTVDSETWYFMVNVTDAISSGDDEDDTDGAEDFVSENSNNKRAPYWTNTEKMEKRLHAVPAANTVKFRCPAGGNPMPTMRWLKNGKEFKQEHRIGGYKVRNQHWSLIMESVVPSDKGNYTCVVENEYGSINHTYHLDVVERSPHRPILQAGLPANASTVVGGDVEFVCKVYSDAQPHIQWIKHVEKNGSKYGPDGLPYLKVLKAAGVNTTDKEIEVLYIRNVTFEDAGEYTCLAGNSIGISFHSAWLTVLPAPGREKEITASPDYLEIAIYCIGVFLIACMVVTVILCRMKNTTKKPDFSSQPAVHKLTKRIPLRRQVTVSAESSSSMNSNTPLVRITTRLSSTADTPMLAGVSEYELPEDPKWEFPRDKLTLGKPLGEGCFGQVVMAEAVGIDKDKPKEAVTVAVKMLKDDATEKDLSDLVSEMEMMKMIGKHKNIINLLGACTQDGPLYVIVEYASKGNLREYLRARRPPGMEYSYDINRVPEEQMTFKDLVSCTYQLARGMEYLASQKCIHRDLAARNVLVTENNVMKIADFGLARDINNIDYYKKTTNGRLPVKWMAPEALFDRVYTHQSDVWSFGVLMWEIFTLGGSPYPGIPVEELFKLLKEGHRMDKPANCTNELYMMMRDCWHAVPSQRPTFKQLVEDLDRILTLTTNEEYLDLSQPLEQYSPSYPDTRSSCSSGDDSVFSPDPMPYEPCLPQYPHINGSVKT

Row | SMILES | Potency, Mean TGI50 (NCI-60 panel [1]) | GI50 (NCI-60 panel [1]) | EC50 (Huh-7 [2]) | EC50 (ACHN) | EC50 (PC-3) | EC50 (T47D) | EC50 (SKBR3) | effect of Z-VAD-FMK on compound-induced cell death (HepG2 cells [5]) | mitochondrial membrane depolarization and release of AIF (HepG2 cells [6]) | IC50 (Raf-1 kinase) | also measured
1 | C#Cc1cccc(Nc2ncnc3cc(OCCOC)c(OCCOC)cc23)c1 [Erlotinib (Tarceva®)] | 59 µM | 5.5 µM |  |  |  |  |  |  |  |  | 
2 | COc1cc2ncnc(Nc3ccc(F)c(Cl)c3)c2cc1OCCCN1CCOCC1 [Gefitinib (Iressa®)] | 19 µM | 3.2 µM |  |  |  |  |  |  |  |  | 
3 | Cc1ccc(NC(=O)c2ccc(CN3CCN(C)CC3)cc2)cc1Nc1nccc(-c2cccnc2)n1 [Imatinib (Gleevac®)] | 43 µM | 15 µM |  |  |  |  |  |  |  |  | 
4 | CNC(=O)c1cc(Oc2ccc(NC(=O)Nc3ccc(Cl)c(C(F)(F)F)c3)cc2)ccn1 [Sorafenib] | 6.0 µM | 1.9 µM | 4.2 ± 0.5 µM | 4 ± 0.5 µM | 5.5 ± 0.8 µM | 3 ± 0.5 µM | 6.5 ± 0.5 µM | no protective effect | observed | […] | lowest level at which caspase activation was observable (HepG2 [3]; HepG2, 72-h incubation): 0.1 µM; lowest level at which caspase activation was observable (Huh-7 [4]; Huh-7, 72-h incubation): 0.1 µM; IC50 [7]: 12 nM
5 | CCN(CC)CCNC(=O)c1c(C)[nH]c(/C=C2\C(=O)Nc3ccc(F)cc32)c1C [Sunitinib] | 9.6 µM | 2.2 µM | 8 ± 0.9 µM | 8 ± 1 µM | 8 ± 0.5 µM | 12 ± 1 µM | 10 ± 0.9 µM |  |  |  | EC50 (HepG2 [8]; Homo sapiens, HepG2, 72 h, read-out: EC50 cell viability, Liver HepG2): 7.5 ± 0.8 µM
6 | CNC(=O)c1cc(O[C@H]2CC[C@H](NC(=O)Nc3ccc(Cl)c(C(F)(F)F)c3)CC2)ccn1 [t-CUPM] |  |  |  |  |  |  |  | no protective effect | observed | 75 nM | EC50 relative to that of sorafenib (HepG2 [8]; cell viability, hepatoma cell lines HepG2 and Huh-7): < twofold; GI50 (KM12 (colon cancer)): 640 nM; kinase inhibitory activity toward FGFR2 (FGFR2): reduced its kinase inhibitory activity; kinase inhibitory activity toward EPHA1 (EPHA1): reduced its kinase inhibitory activity; suppression of STAT3 phosphorylation (STAT3 phosphorylation): not as effective as sorafenib; caspase 3/7 induction (HepG2 [3]; HepG2, 25 μM, 72-h incubation): levels of caspase induction similar to sorafenib; caspase 3/7 induction (Huh-7 [4]; Huh-7, 25 μM, 72-h incubation): levels of caspase induction similar to sorafenib; effect on cell cycle progression (HepG2 cells [9]): arrest in G0/G1 transition; Cmax compared with sorafenib [10]: higher Cmax; AUCt compared with sorafenib ([10]; 0.5 to 48 h): significantly higher AUCt; blood levels relative to sorafenib ([10]; from 0.5 to 48 h): tenfold; Potency, Mean TGI50 (NCI-60 panel [11]): 34 µM; GI50 (NCI-60 panel [11]; read-out: Potency, Mean GI50): 9 µM; loss in the activity toward oncogenic b-Raf (V600E) kinase [12]: 40 fold
